According to US11390617B2, “Methods of treating non-Hodgkin lymphoma using 2-(2,6-dioxopiperidin-3-yl)-4-((2-fluoro-4-((3-morpholinoazetidin-1-yl)methyl)benzyl)amino)isoindoline-1,3-dione” (Celgene Corporation, priority 2019, dated 2022):

Legend:
Test in all cases: NHL cell line viability/apoptosis 384-well flow cytometry assay
Type in all cases: cell-based
Pfeiffer = Pfeiffer (DLBCL), 120 hours
Protocol: (§1) The following exemplary anti-proliferative assay uses exemplary non-Hodgkin lymphoma (NIL) cell lines (including diffuse large B-cell lymphoma (DLBCL), follicular lymphoma (FL), and mantle cell lymphoma (MCL)) (Table 5). The in vitro growth inhibitory activity of Compound 1 described herein was evaluated using a 384-well flow cytometry assay.
(§2) The cell lines in Table 5 were plated in 384-well flat bottom plates and assessed with increasing concentrations of compound ranging from 0.00015 to 10 μM or dimethyl sulfoxide (DMSO) control. The final concentration of DMSO was 0.1% (v/v). Following the addition of Compound 1 or DMSO and incubation for 120 hours, cell number and cell death were analyzed by flow cytometry (Attune®, Thermo Fisher) using Annexin V and the live-cell impermeant DNA dye, DRAQ7. Phosphatidylserine translocates from the inner layer to the outer layer of the cell membrane early in apoptosis and Annexin V binds to the exposed phosphatidylserine found on the surface of an apoptotic cell. The vital dye DRAQ7 is excluded by intact live cells and only stains cells that have died as a result of apoptosis or necrosis.
(§3) Flow cytometry data analysis was then performed using the Flow Jo_v10 software to determine the number of viable cells (Annexin V and DRAQ7 double negative staining cells) and percentage of apoptotic cells (Annexin V positive cells) for each condition. The live cell count for every concentration was normalized to the DMSO control (considered as 100%) to calculate the percentage of viable cells remaining after treatment and graphed using GraphPad Prism 7.03. The IC50 (50% inhibitory concentration) and Emax (maximum efficacy achieved) values were then calculated by performing nonlinear regression curve fitting using log(inhibitor) vs. normalized response—variable slope analysis on GraphPad Prism 7.03. Area under the curve (AUC) was calculated by performing area under curve analysis on GraphPad Prism 7.03. Similarly, for apoptosis analysis, the percentage of apoptosis combining both “early” (Annexin V positive and DRAQ7 negative) and “late” apoptosis (Annexin V and DRAQ7 positive) cell gates relative to DMSO was graphed using GraphPad Prism 7.03. The AUC, EC50 (concentration of Compound 1 that produces half-maximal apoptosis response) and Ymax (maximal percentage of apoptosis achieved) values from apoptosis curves were calculated by performing area under curve analysis and nonlinear regression curve fitting using log(agonist) vs. normalized response—Variable slope analysis on GraphPad Prism 7.03.
(§4) In Table 6, dose-response proliferation curves for the panel of NHL cell lines and non-linear curve-fit regression were used to determine IC50, AUC, and Emax for % viable cells (Emax for viability varies between 100 at low doses and 0 at high doses, which corresponds to inhibition of all viable cells), and dose-response apoptosis curves were used to determine the EC50, AUC, and Ymax for % apoptosis (Ymax for apoptosis varies from 0 at low doses and 100 at higher doses which corresponds to death of all cells). Tumor cells were exposed to serial dilutions (0.00015 to 10 μM) of Compound 1 or dimethyl sulfoxide (DMSO) control for 5 days. Viability and apoptosis for all cell lines was determined by Annexin V/[…] flow cytometry.

U-2940 = U-2940 (DLBCL), 120 hours
Protocol: as §1, §2, §3, §4

Toledo = Toledo (DLBCL), 120 hours
Protocol: as §1, §2, §3, §4

SU-DHL-2 = SU-DHL-2 (DLBCL), 120 hours
Protocol: as §1, §2, §3, §4

SU-DHL-4 = SU-DHL-4 (DLBCL), 120 hours
Protocol: as §1, §2, §3, §4

OCI-LY1 = OCI-LY1 (DLBCL), 120 hours
Protocol: as §1, §2, §3, §4

NU-DUL-1 = NU-DUL-1 (DLBCL), 120 hours
Protocol: as §1, §2, §3, §4

ULA = ULA (DLBCL), 120 hours
Protocol: as §1, §2, §3, §4

OCI-LY3 = OCI-LY3 (DLBCL), 120 hours
Protocol: as §1, §2, §3, §4

SU-DHL-5 = SU-DHL-5 (DLBCL), 120 hours
Protocol: as §1, §2, §3, §4

VAL = VAL (DLBCL), 120 hours
Protocol: as §1, §2, §3, §4

U-2973 = conditions: U-2973, 120 hours
Protocol: as §1, §2, §3, §4

[1] = Homo sapiens, read-out: IC50 (% Viable Cells)
[2] = read-out: IC50 (% Viable Cells)

## O=C1CC[C@H](N2C(=O)c3cccc(NCc4ccc(CN5CC(N6CCOCC6)C5)cc4F)c3C2=O)C(=O)N1 [Compound 1, (S)-2-(2,6-dioxopiperidin-3-yl)-4-((2-fluoro-4-((3-morpholinoazetidin-1-yl)methyl)benzyl)amino)isoindoline-1,3-dione]
Pfeiffer; Homo sapiens
  EC50: 13.6 nM
Pfeiffer; [1]
  IC50: 47.7 nM
Pfeiffer
  AUC (% Viable Cells): 313.5
  AUC (Apoptosis): 493.3
  Emax (% Viable Cells): 24.49%
  Ymax (Apoptosis): 51.82%
U-2940; Homo sapiens
  EC50: 31.4 nM
U-2940; [1]
  IC50: 6.31 nM
U-2940
  AUC (% Viable Cells): 70.43
  AUC (Apoptosis): 792.5
  Emax (% Viable Cells): 5.192%
  Ymax (Apoptosis): 82.19%
Toledo; Homo sapiens
  EC50: 223 nM
Toledo; [1]
  IC50: 2 nM
Toledo
  AUC (% Viable Cells): 112.3
  AUC (Apoptosis): 231.4
  Emax (% Viable Cells): 8.56%
  Ymax (Apoptosis): 27.5%
SU-DHL-2; Homo sapiens
  EC50: 6.24 nM
SU-DHL-2; [1]
  IC50: 1.26 nM
SU-DHL-2
  AUC (% Viable Cells): 5.586
  AUC (Apoptosis): 928.4
  Emax (% Viable Cells): 0.2145%
  Ymax (Apoptosis): 95.98%
SU-DHL-4; Homo sapiens
  EC50: 782 nM
SU-DHL-4; [1]
  IC50: 278 nM
SU-DHL-4
  AUC (% Viable Cells): 296.2
  AUC (Apoptosis): 209
  Emax (% Viable Cells): 23.44%
  Ymax (Apoptosis): 25.33%
OCI-LY1; Homo sapiens
  EC50: 33.4 nM
OCI-LY1; [1]
  IC50: 6 nM
OCI-LY1
  AUC (% Viable Cells): 22.77
  AUC (Apoptosis): 852.3
  Emax (% Viable Cells): 1.037%
  Ymax (Apoptosis): 90.09%
NU-DUL-1; Homo sapiens
  EC50: 63 nM
NU-DUL-1; [1]
  IC50: 35.3 nM
NU-DUL-1
  AUC (% Viable Cells): 22.12
  AUC (Apoptosis): 962.8
  Emax (% Viable Cells): 0.0228%
  Ymax (Apoptosis): 99.84%
ULA
  AUC (% Viable Cells): 0.5518
  AUC (Apoptosis): 995.3
  EC50: 1.79 nM
  Emax (% Viable Cells): 0.02523%
  Ymax (Apoptosis): 99.76%
ULA; [2]
  IC50: 0.99 nM
OCI-LY3; Homo sapiens
  EC50: 0.263 nM
OCI-LY3; [1]
  IC50: ≥ 10000 nM
OCI-LY3
  AUC (% Viable Cells): 965.1
  AUC (Apoptosis): 24.63
  Emax (% Viable Cells): 85.63%
  Ymax (Apoptosis): 4.493%
SU-DHL-5; Homo sapiens
  EC50: 3.6 nM
SU-DHL-5; [1]
  IC50: 2.39 nM
SU-DHL-5
  AUC (% Viable Cells): 1.873
  AUC (Apoptosis): 934.1
  Emax (% Viable Cells): 0.1398%
  Ymax (Apoptosis): 95.23%
VAL
  AUC (% Viable Cells): 14.62
  AUC (Apoptosis): 936.7
  EC50: 0.605 nM
  Emax (% Viable Cells): 0.9632%
  Ymax (Apoptosis): 95.68%
VAL; [2]
  IC50: 0.57 nM
U-2973; Homo sapiens
  EC50: 2160 nM
U-2973; [1]
  IC50: 6780 nM
U-2973
  AUC (% Viable Cells): 853.4
  AUC (Apoptosis): 391.9
  Emax (% Viable Cells): 19.45%
  Ymax (Apoptosis): 60.8%
